This is an account of results in patent US20260216172A1, “COMPOUNDS AND METHOD FOR TREATING HIV INFECTION” (The United States of America, as represented by the …, priority 2023, published 2026).

Read-outs that look alike come from different tables or passages of the source.

Data set [1] has as its system HIV-1 BCF01 (O). As to the kind of experiment: Anti-HIV-1 cytoprotection assay in PBMCs, isolate BCF01 (O). To be noted: Human immunodeficiency virus 1, CCR5. It counts as cell-based. As for the experimental part: (§1) This Example illustrates anti-HIV cytoprotection provided by compounds in accordance with another aspect of the invention, namely in PBMCs. PHA-P stimulated PBMCs from three donors were pooled together and re-suspended in fresh tissue culture medium at 1×10^6 cells/ml and plated in the interior wells of a 96 well round bottom microplate at 50 μL/well. A 100 μL volume of 2× concentrations of compound-containing media were transferred to the round-bottom 96-well plate containing the cells in triplicate. Fifty microliters (50 μL) of HIV-1 at a pre-determined dilution was added. Each plate contained cell control wells and virus control wells in parallel with the experimental wells. After 7 days in culture, efficacy was evaluated by measuring the reverse transcriptase in the culture supernatants and the cells were stained with the tetrazolium dye XTT to evaluate cytotoxicity.

Data set [2] relates to HIV-1 CMU08 (E). As to the kind of experiment: Anti-HIV-1 cytoprotection assay in PBMCs, isolate CMU08 (E). It counts as cell-based. Conditions: Human immunodeficiency virus 1, PBMC, CXCR4. As to the method: as §1
Data set [3] is described as follows: Pharmacokinetic study in male CD-1 mice. Conditions: single IV bolus 5 mg/kg of compound 17, male CD-1 mice. Type of data set: in vivo. As to the method:
Male CD-1 mice weighing between […] were dosed via orbital sinus injection and blood was collected via submandibular vein. IV dosing solutions were prepared in DMSO:PEG400:Saline (5:35:60, v/v/v) at 1 mg/mL concentration of the prodrug. Blood samples (50 μL each time point) were obtained via Culex at predetermined time points (0, 5, 15, 30, 60, 120, 240, 360, 480 and 1440 min) after dosing. Plasma was obtained by centrifugation within 30 minutes after collection and aliquots of dosing solutions were taken and analyzed at the same time with plasma samples using a validated LC-MS/MS method developed on a Shimadzu HPLC system interfaced to a Sciex QTRAP 5500 mass spectrometer. Eluents were gradient mixtures of water and acetonitrile with 0.10% formic acid. HPLC column was ACE 5 C8, 50×2.1 mm, […]. PK parameters of the analytes were obtained using Phoenix®, WinNonlin® software (version 8.1).
The study was performed in male CD-1 mice to assess pharmacokinetics (PK) of prodrug 17 and its metabolites 18 and 19.

The subject of data set [4] is HIV-1 RU132 (G). In words: Anti-HIV-1 cytoprotection assay in PBMCs, isolate RU132 (G). To be noted: Human immunodeficiency virus 1, CCR5. It counts as cell-based. As to the method: as §1
Data set [5] deals with HIV-1 UG92001 (D). In words: Anti-HIV-1 cytoprotection assay in PBMCs, isolate UG92001 (D). Conditions: Human immunodeficiency virus 1, PBMC, CXCR4/CCR5. Type of data set: cell-based. As to the method:
as §1

In data set [6] the test system is HIV-1 RW92009 (A). As to the kind of experiment: Anti-HIV-1 cytoprotection assay in PBMCs, isolate RW92009 (A). To be noted: Human immunodeficiency virus 1, PBMC, CXCR4/CCR5. Type of data set: cell-based. As for the experimental part:
as §1

A short description of data set [7]: Cell viability of uninfected drug control wells, CEM-SS cells (XTT). Type of data set: cell-based. To be noted: human, read-out: TC50. As to the method: (§2) (a) Anti-HIV Cytoprotection Evaluation: Inhibition of virus-induced cytopathic effects (CPE) and cell viability following HIV replication in CEM-SS cells were measured by the use of XTT tetrazolium dye. CEM-SS cells (2.5×10^3 cells per well) were seeded in 96-well U-bottomed tissue culture plates in RPMI medium supplemented with 10% FBS, 2 mM L-glutamine, 100 U/ml penicillin and 100 μg/ml streptomycin. Serially diluted compounds (6 concentrations) and HIV-1RF diluted to a pre-determined titer to yield 85 to 95% cell killing at 6 days post-infection were be added to the plate. AZT was evaluated in parallel as a positive control. Following incubation at 37° C., 5% CO2 for six days, cell viability was measured by XTT staining. The optical density of the cell culture plate will be determined spectrophotometrically at 450 and 650 nm using Softmax Pro 4.6 software. Percent CPE reduction of the virus-infected wells and the percent cell viability of uninfected drug control wells was calculated to define the EC50, TC50 and therapeutic index (TI50) using Microsoft Excel Xlfit4.
as §2, with “Inhibition” for “(a) Anti-HIV Cytoprotection Evaluation: Inhibition”, “by” for “by the use of”, “wells were” for “wells was”
(Tetrazolium assays rely on reduction of a dye to a coloured formazan, in cell work by metabolically active cells.)

In data set [8] the test system is HIV-1RF. In words: Anti-HIV cytoprotection evaluation in CEM-SS cells (CPE inhibition, XTT). It counts as cell-based. To be noted: Human immunodeficiency virus 1, 144 h, 6 days. As to the method: as §2
as §2, with “Inhibition” for “(a) Anti-HIV Cytoprotection Evaluation: Inhibition”, “by” for “by the use of”, “wells were” for “wells was”

Data set [9] concerns HIV-1 HT92599 (B). As to the kind of experiment: Anti-HIV-1 cytoprotection assay in PBMCs, isolate HT92599 (B). To be noted: Human immunodeficiency virus 1, PBMC, CXCR4. It counts as cell-based. As for the experimental part:
as §1

Data set [10] in a line: Cytotoxicity in PBMCs (XTT). Type of data set: cell-based. Conditions: human, PHA-P stimulated PBMCs pooled from three donors; PBMCs, line of isolate CMU08 (E); read-out: TC50. As for the experimental part: as §1, with “(b) Anti-HIV-1 Cytoprotection Assay” for “This Example illustrates anti-HIV cytoprotection provided by compounds”, “PBMCs:” for “accordance with another aspect of the invention, namely in PBMCs.”
as §1

Data set [11] has as its system PBMCs. In words: Cytotoxicity in PBMCs (XTT). Type of data set: cell-based. Conditions: PBMCs, read-out: TC50 (the source's name). As for the experimental part: as §1, with “(b) Anti-HIV-1 Cytoprotection Assay” for “This Example illustrates anti-HIV cytoprotection provided by compounds”, “PBMCs:” for “accordance with another aspect of the invention, namely in PBMCs.”
as §1

Data set [12] relates to HIV-1 ZA97009 (C). In words: Anti-HIV-1 cytoprotection assay in PBMCs, isolate ZA97009 (C). It counts as cell-based. To be noted: Human immunodeficiency virus 1, CCR5. As to the method:
as §1

In data set [13] the test system is HIV-1 BR93020 (F). In words: Anti-HIV-1 cytoprotection assay in PBMCs, isolate BR93020 (F). It counts as cell-based. To be noted: Human immunodeficiency virus 1, CCR5. As to the method:
as §1

With `CCCC(=O)OCSc1ccccc1C(=O)NCCn1cc(C(=O)NCc2cccc(C)n2)c(=O)c2cc3c(cc21)OC(F)(F)O3` [Compound 17, ((2-((2-(2,2-difluoro-7-(((6-methylpyridin-2-yl)methyl)carbamoyl)-8-oxo-[1,3]dioxolo[4,5-g]quinolin-5(8H)-yl)ethyl)carbamoyl)phenyl)thio)methyl butyrate], the EC50 amounted to 7.79 µM in data set [1]; 5.23 µM in [2]; 6.85 µM in [4]; 5.14 µM in [5]; 4.26 µM in data set [6]; 1.48 µM in data set [8]. The values for the EC50 in data set [9], in data set [12] and in data set [13] were 6.52 µM, 10.7 µM and 2.01 µM, respectively. In data set [3] (mouse, in vivo), this compound displayed a clearance of 136 mL/min/kg. Further, the C0 in data set [3] (mouse, in vivo, plasma) is 1910 ng/mL. For the same compound, the Vd in data set [3] (mouse, in vivo, read-out: Vss) came to 9.6 L/kg. The tlast in data set [3] (plasma, 18 and 19 measured as metabolites) came to 8.00 h. For the same compound, in data set [7], the CC50 at 6 days is > 100 µM. For the same compound, in data set [10], the CC50 at 7 days is > 100 µM. Moreover, the CC50 in data set [11] (line of isolate BCF01 (O)), in data set [11] (line of isolate BR93020 (F)), in [11] (line of isolate HT92599 (B)), in [11] (line of isolate RU132 (G)), in [11] (line of isolate RW92009 (A)) and in data set [11] (line of isolate UG92001 (D)) was > 100 µM in each case. Further, in [11] (line of isolate ZA97009 (C)), the CC50 is > 100 µM.

The term EC50 denotes the concentration needed to bring the measured effect to its halfway point. Read a high EC50 as lower potency in that assay. A word on the clearance: it is the volume of plasma or blood freed of the substance per unit of time. A lower clearance goes with inefficient removal.
